Read-outs that look alike come from different tables or passages of the source.
Columns and labels:
NCI-H358 (K-Ras G12C) = experiment: CellTiter-Glo cell viability assay, 5-day treatment; format: cell-based; conditions: Homo sapiens
Description: Protocol: CellTiter-Glo® Cell Viability Assay
Note—The following protocol describes a procedure for monitoring cell viability of K-Ras mutant cancer cell lines in response to a compound of the invention. Other RAS isoforms may be employed, though the number of cells to be seeded will vary based on cell line used.
(§1) Test compounds (132.5 nL) were directly dispensed into the assay plates containing cells. […] On day 5, assay plates and their contents were equilibrated to room temperature for approximately 30 minutes. […] Luminescence was measured using the PerkinElmer Enspire. Data were normalized by the following: (Sample signal/Avg. DMSO)*100. The data were fit using a four-parameter logistic fit.
as §1, with “nl)” for “nL)”

NRAS G12C = NRAS G12C (Homo sapiens, UniProt P01111+P62937, G12C); experiment: Disruption of BRAF RBD interaction with Ras (FRET / MOA assay, with Cyclophilin A); format: biochemical; conditions: NRAS G12C; read-out: NRAS G12C FRET data IC50
Excerpt: (§2) This protocol may also be executed substituting other Ras proteins or nucleotides.
(§3) The purpose of this biochemical assay was to measure the ability of test compounds to facilitate ternary complex formation between a nucleotide-loaded K-Ras isoform and Cyclophilin A; the resulting ternary complex disrupts binding to a BRAF^RBD construct, inhibiting K-Ras signaling through a RAF effector. Data is reported as IC50 values.
(§4) Compound was present in plate wells as a 10-point 3-fold dilution series starting at a final concentration of 30 μM. After incubation at 25° C. for 3 hours, a mixture of Anti-His Eu-W1024 and anti-GST allophycocyanin was then added to assay sample wells at final concentrations of 10 nM and 50 nM, respectively, and the reaction incubated for an additional 1.5 hours. […] Compounds that facilitate disruption of a K-Ras:RAF complex were identified as those eliciting a decrease in the TR-FRET ratio relative to DMSO control wells.
as §3, with “BRAF^RBDD” for “BRAF^RBD”

KRAS G13C = KRAS G13C (Homo sapiens, UniProt P01116+P62937, G13C); experiment: as above; format: biochemical
Excerpt: as §2, §3, §4
as §3, with “BRAF^RBDD” for “BRAF^RBD”

KRAS G12V = KRAS G12V (Homo sapiens, UniProt P01116+P62937, G12V); experiment: as above; format: biochemical; conditions: KRAS G12V; read-out: KRAS G12V FRET data IC50
Excerpt: as §2, §3, §4
as §3, with “BRAF^RBDD” for “BRAF^RBD”

KRAS WT = KRAS WT (Homo sapiens, UniProt P01116+P62937); experiment: as above; format: biochemical; conditions: KRAS WT; read-out: KRAS WT FRET data IC50
Excerpt: as §2, §3, §4
as §3, with “BRAF^RBDD” for “BRAF^RBD”

KRAS G13D = KRAS G13D (Homo sapiens, UniProt P01116+P62937, G13D); experiment: as above; format: biochemical; conditions: KRAS G13D; read-out: KRAS G13D FRET data IC50
Excerpt: as §2, §3, §4
as §3, with “BRAF^RBDD” for “BRAF^RBD”

KRAS G12C = KRAS G12C (Homo sapiens, UniProt P01116+P62937, G12C); experiment: as above; format: biochemical
Excerpt: as §2, §3, §4
as §3, with “BRAF^RBDD” for “BRAF^RBD”

KRAS G12S = KRAS G12S (Homo sapiens, UniProt P01116+P62937, G12S); experiment: as above; format: biochemical; conditions: read-out: KRAS G12S FRET data, IC50
Excerpt: as §2, §3, §4
as §3, with “BRAF^RBDD” for “BRAF^RBD”

KRAS G12D = KRAS G12D (Homo sapiens, UniProt P01116+P62937, G12D); experiment: as above; format: biochemical; conditions: read-out: KRAS G12D FRET data, IC50
Excerpt: as §2, §3, §4
as §3, with “BRAF^RBDD” for “BRAF^RBD”

[1] = NCI-H358, 120 h, 5-day treatment, read-out: H358 Cell Viability assay data (K-Ras G12C, IC50)
[2] = NCI-H358, H358, K-Ras G12C, read-out: Additional H358 Cell Viability assay data (K-Ras G12C, IC50)

KRAS G13D, sequence (P01116 1-169 isoform P01116-2 G13D limits assumed): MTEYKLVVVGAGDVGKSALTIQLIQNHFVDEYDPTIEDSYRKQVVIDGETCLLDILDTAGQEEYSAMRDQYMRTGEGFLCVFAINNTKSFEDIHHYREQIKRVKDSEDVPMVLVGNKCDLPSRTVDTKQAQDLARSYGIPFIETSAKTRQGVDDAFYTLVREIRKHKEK
KRAS G13D, sequence (P62937 whole entry): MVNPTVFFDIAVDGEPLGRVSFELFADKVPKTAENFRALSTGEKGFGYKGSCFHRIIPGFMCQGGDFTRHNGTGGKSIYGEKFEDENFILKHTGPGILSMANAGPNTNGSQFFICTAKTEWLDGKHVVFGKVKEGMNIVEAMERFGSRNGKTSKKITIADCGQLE
KRAS G12V, sequence (P01116 1-169 isoform P01116-2 G12V limits assumed): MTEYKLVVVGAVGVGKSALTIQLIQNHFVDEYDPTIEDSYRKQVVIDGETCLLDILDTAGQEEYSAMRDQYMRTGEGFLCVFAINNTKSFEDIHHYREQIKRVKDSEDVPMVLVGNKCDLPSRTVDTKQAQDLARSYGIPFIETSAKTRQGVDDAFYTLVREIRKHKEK
KRAS G12V, sequence (P62937 whole entry): as the sequence (P62937 whole entry) above
KRAS G13C, sequence (P01116 1-169 isoform P01116-2 G13C): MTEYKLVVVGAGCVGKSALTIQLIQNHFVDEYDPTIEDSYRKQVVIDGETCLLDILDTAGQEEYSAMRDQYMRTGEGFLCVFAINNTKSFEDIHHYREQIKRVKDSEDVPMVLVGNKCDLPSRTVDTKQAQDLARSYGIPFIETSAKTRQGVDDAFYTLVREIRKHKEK
KRAS G13C, sequence (P62937 whole entry): as the sequence (P62937 whole entry) above
KRAS WT, sequence (P01116 1-169 isoform P01116-2 limits assumed): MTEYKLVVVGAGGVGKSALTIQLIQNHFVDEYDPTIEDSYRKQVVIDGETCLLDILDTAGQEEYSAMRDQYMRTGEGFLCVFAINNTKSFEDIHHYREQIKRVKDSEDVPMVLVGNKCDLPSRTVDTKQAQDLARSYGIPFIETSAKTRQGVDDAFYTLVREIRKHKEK
KRAS WT, sequence (P62937 whole entry): as the sequence (P62937 whole entry) above
NRAS G12C, sequence (P01111 whole entry G12C): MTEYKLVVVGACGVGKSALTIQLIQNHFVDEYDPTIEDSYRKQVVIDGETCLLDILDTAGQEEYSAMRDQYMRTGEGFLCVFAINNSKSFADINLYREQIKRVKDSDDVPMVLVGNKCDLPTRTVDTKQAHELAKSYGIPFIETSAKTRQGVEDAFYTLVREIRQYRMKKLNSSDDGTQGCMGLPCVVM
NRAS G12C, sequence (P62937 whole entry): as the sequence (P62937 whole entry) above
KRAS G12C, sequence (P01116 1-169 isoform P01116-2 G12C): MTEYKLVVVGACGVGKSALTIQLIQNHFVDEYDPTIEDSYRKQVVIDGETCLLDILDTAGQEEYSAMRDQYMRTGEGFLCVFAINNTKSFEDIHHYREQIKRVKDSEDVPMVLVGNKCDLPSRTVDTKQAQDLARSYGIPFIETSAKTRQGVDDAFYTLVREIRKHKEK
KRAS G12C, sequence (P62937 whole entry): as the sequence (P62937 whole entry) above
KRAS G12S, sequence (P01116 1-169 isoform P01116-2 G12S limits assumed): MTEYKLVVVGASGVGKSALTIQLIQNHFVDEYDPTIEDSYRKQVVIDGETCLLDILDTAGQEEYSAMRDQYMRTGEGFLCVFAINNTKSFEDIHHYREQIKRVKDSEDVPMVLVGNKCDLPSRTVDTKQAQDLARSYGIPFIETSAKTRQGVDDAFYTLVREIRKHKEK
KRAS G12S, sequence (P62937 whole entry): as the sequence (P62937 whole entry) above
KRAS G12D, sequence (P01116 1-169 isoform P01116-2 G12D limits assumed): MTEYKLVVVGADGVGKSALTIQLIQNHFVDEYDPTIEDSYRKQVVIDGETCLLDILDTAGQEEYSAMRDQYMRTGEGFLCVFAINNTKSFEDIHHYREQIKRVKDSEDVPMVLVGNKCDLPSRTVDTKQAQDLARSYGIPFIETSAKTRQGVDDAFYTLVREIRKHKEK
KRAS G12D, sequence (P62937 whole entry): as the sequence (P62937 whole entry) above

`CCn1c(-c2cccnc2[C@H](C)OC)c2c3cc(ccc31)-c1cc(O)cc(c1)C[C@H](NC(=O)[C@H](C(C)C)N(C)C(=O)[C@@H]1C[C@@H]1C)C(=O)N1CCC[C@H](N1)C(=O)OCC(C)(C)C2` [Example A223] showed an IC50 (NCI-H358 (K-Ras G12C); [1]) of 10 to 100 nM.
For `CCn1c(-c2cnccc2COC)c2c3cc(ccc31)-c1cc(O)cc(c1)C[C@H](NC(=O)[C@H](C(C)C)N(C)C(=O)[C@@H]1CCN(C[C@@H](C)O)C1)C(=O)N1CCC[C@H](N1)C(=O)OCC(C)(C)C2` [Example A31], the IC50 (NRAS G12C) was 100 to 1000 nM and the IC50 (NCI-H358 (K-Ras G12C); [1]) was over 10000 nM.
`CCn1c(-c2cccnc2[C@H](C)OC)c2c3cc(ccc31)-c1cccc(c1)C[C@H](NC(=O)[C@H](C(C)C)N(C)C(=O)[C@H]1CCN(C(=O)/C=C/CN3CC(OC)C3)C1)C(=O)N1CCC[C@H](N1)C(=O)OCC(C)(C)C2` (atropisomer, axis not shown) [Example A204] was tested, and the IC50 (NCI-H358 (K-Ras G12C); [2]) was 10 to 100 nM.
`CCn1c(-c2cccnc2[C@H](C)OC)c2c3cc(ccc31)-c1cc(O)cc(c1)C[C@H](NC(=O)[C@H](C(C)C)N(C)C(=O)C1CCCC1)C(=O)N1CCC[C@H](N1)C(=O)OCC(C)(C)C2` [Example A219] was tested, and the IC50 (NCI-H358 (K-Ras G12C); [1]) was 100 to 1000 nM.
Compound `C=CC(=O)N1CC[C@H](C(=O)N(C)[C@H](C(=O)N[C@H]2C[C@H]3CN(CCO3)c3ccc4c(c3)c(c(-c3cccnc3[C@H](C)OC)n4CC)CC(C)(C)COC(=O)[C@@H]3CCCN(N3)C2=O)C(C)C)C1` (atropisomer, axis not shown) [Example A378] has an IC50 (NCI-H358 (K-Ras G12C); [2]) of 100 to 1000 nM.
`C=CC(=O)N1CC(OC[C@H](C(=O)N[C@H]2Cc3cccc(c3)-c3ccc4c(c3)c(c(-c3cccnc3[C@H](C)OC)n4CC(F)(F)F)CC(C)(C)COC(=O)[C@@H]3CCCN(N3)C2=O)C(C)C)C1` [Example A453] showed an IC50 (KRAS G13C; KRAS G13C, read-out: KRAS G13C FRET data IC50) of over 10000 nM, an IC50 (KRAS G12V) of over 10000 nM and an IC50 (KRAS WT) of over 10000 nM. For the same compound, the IC50 (KRAS G13D) was over 10000 nM, the IC50 (NRAS G12C) was 1000 to 10000 nM and the IC50 (KRAS G12C; KRAS G12C, read-out: KRAS G12C FRET data IC50) was 1000 to 10000 nM. The IC50 (KRAS G12S) was over 10000 nM and the IC50 (NCI-H358 (K-Ras G12C); [2]) was 100 to 1000 nM.
In the case of `C=CC(=O)N1CC[C@H](C(=O)N(C)[C@H](C(=O)N[C@H]2Cc3cc(O)cc(c3)-c3ccc4c(c3)c(c(-c3ccncc3COC)n4CC)CC(C)(C)COC(=O)[C@@H]3CCCN(N3)C2=O)C(C)C)C1` [Example A91], the IC50 (NCI-H358 (K-Ras G12C); [2]) is reported as under 10 nM.
`C=CC(=O)N1CC[C@H](C(=O)N(C)[C@H](C(=O)N[C@H]2Cc3nc(cs3)-c3ccc4c(n3)c(c(-c3cccnc3[C@H](C)OC)n4CC)CC(C)(C)COC(=O)[C@@H]3CCCN(N3)C2=O)C(C)C)C1` [Example A347, (2S)—N-[(7S,13S)-21-ethyl-20-{2-[(1S)-1-methoxyethyl]pyridin-3-yl}-17,17-dimethyl-8,14-dioxo-15-oxa-4-thia-9,21,25,27,28-pentaazapentacyclo[17.5.2.1^{2,5}.1^{9,13}.0^{22,26}]octacosa-1(25),2,5(25),19,22(26),23-hexaen-7-yl]-3-methy-2-{N-methyl-1-[(3S)-1-(prop-2-enoyl)pyrrolidin-3-yl]formamido}butanamide] showed an IC50 (NCI-H358 (K-Ras G12C); [2]) of 100 to 1000 nM.
For `CCn1c(-c2cccnc2COC)c2c3cc(ccc31)-c1cc(O)cc(c1)C[C@H](NC(=O)[C@H](C(C)C)N(C)C(=O)[C@H]1CCN(C(C)=O)C1)C(=O)N1CCC[C@H](N1)C(=O)OCC(C)(C)C2` [Example A22], the IC50 (KRAS G13C; read-out: KRAS G13C FRET data, IC50) was 100 to 1000 nM, the IC50 (KRAS G12V) was 100 to 1000 nM and the IC50 (KRAS WT) was 100 to 1000 nM. It also gave an IC50 (KRAS G13D) of 1000 to 10000 nM, an IC50 (KRAS G12C; read-out: KRAS G12C FRET data, IC50) of 100 to 1000 nM and an IC50 (KRAS G12S) of 100 to 1000 nM. The IC50 (KRAS G12D) was 1000 to 10000 nM and the IC50 (NCI-H358 (K-Ras G12C); [1]) was 1000 to 10000 nM.
`CCn1c(-c2cccnc2[C@H](C)OC)c2c3cc(ccc31)-c1csc(n1)C[C@H](NC(=O)[C@H](C(C)C)N1CCC3(CCN(C(=O)OC)C3)C1=O)C(=O)N1CCC[C@H](N1)C(=O)OCC(C)(C)C2` (stereo partly shown) [Example A221] gave an IC50 (NCI-H358 (K-Ras G12C); [1]) of 100 to 1000 nM.

— patent US20230233569A1 (Revolution Medicines, Inc., priority 2020, published 2023)
